In patent US6060608A, “Analogs of CC-1065 and the duocarmycins” (The Scripps Research Institute, priority 1999, dated 2000):
“And” between values parts separate entries of the source, which are not always exact repeats. Identical values can stand only once. “Also recorded” adds a separate entry of the source.

Columns and labels:
[1] = tested on: w794 DNA, 5'-AATTA high affinity site; test: Relative rate of DNA alkylation at the w794 5'-AATTA high affinity site; type: biochemical, SV40; details: 10^-6 M, 25° C.
Method: Rate of DNA Alkylation. The relative rates of DNA alkylation for the natural enantiommers of CCBI-TMI (35) and CCBI-indole2 (37) versus those of the corresponding CBI and MCBI agents were measured at the single high affinity site in w794, 5'-AATTA. The relative rates earlier studies of DNA alkylation for MCBI-TMI, CBI-TMI, and duocarmycin SA were determined to be quite similar at 4° C., 1.8:1.0:0.9, respectively. […] In prior studies, we have highlighted similar observations with agents that span a much larger range of relative reactivities.
The DNA alkylation selectivity and efficiency of the natural enantiomers of 304-307 were compared with that of 1 in w794 DNA. […] These trends in the overall efficiency of DNA alkylation parallel the relative trends in cytotoxic potency.
(§1) DNA Alkylation Relative Rate of (+)-CCBI-TMI (35), (+)-CBI-TMI, and (+)-MCBI-TMI. Following the procedure detailed above, Eppendorf tubes containing 5' end-labeled w794 DNA (9 μL) in TE buffer (pH 7.5) were treated with (+)-CCBI-TMI (35), (+)-CBI-TMI, or (+)-MCBI-TMI (1 μL, 10^-6 M in DMSO). The solutions were mixed and incubated at 25° C. for 2, 4, 6, 9, 12, 15, and 24 h, respectively. Subsequent isolation of the alkylated DNA by EtOH precipitation, resuspension in TE buffer (10 μL, pH 7.5), thermolysis (30 min, 100° C.), PAGE, and autoradiography were conducted as detailed above. Relative rates for alkylation at the w794 high-affinity 5'-AATTA site were derived from the slopes of the plots of percent integrated optical density (IOD) of the high-affinity alkylation cleavage bands versus time.
as §1, with “(+)-CCBI-indole2 (37), (+)-CBI-indole2,” for “(+)-CCBI-TMI (35), (+)-CBI-TMI,”, “(+)-MCBI-indole2.” for “(+)-MCBI-TMI.”, “(+)-CCBI-indole2 (37), (+)-CBI-indole2, and (+)-MCBI-indole2” for “(+)-CCBI-TMI (35), (+)-CBI-TMI, or (+)-MCBI-TMI”

[2] = tested on: w794 DNA, 5'-AATTA high affinity site; details: 4° C., earlier studies, 1.8:1.0:0.9; cited from earlier work
[3] = in vivo; cited from earlier work
[4] = tested on: w794 duplex DNA; test: DNA alkylation selectivity and efficiency within w794 DNA, thermally-induced strand cleavage and PAGE; type: biochemical, SV40; details: for DNA alkylation, failure to alkylate: 105-107: 37° C., 72 h, up to 10^-2 M, 108 and 110: 10^-3 M or lower
Excerpt: DNA Alkylation Selectivity and Efficiency. The DNA alkylation properties of the agents were examined within w794 duplex DNA, a 144 base-pair segment of duplex DNA for which comparative results are available for related agents. The alkylation site identification and the assessment of the relative selectivity among the available sites were obtained by thermally-induced strand cleavage of the singly 5' end-labeled duplex DNA after exposure to the agents. Following treatment of the end-labeled duplex DNA with a range of agent concentrations, the unbound agent was removed by EtOH precipitation of the DNA. Redissolution of the DNA in aqueous buffer, thermolysis (100° C., 30 min) to induce strand cleavage at the sites of DNA alkylation, denaturing high resolution polyacrylamide gel electrophoresis (PAGE) adjacent to Sanger dideoxynucleotide sequencing standards, and autoradiography led to identification of the DNA cleavage and alkylation sites. The DNA alkylation reaction selectivities observed under the incubation conditions for the agents detailed herein have proven identical to the alkylation selectivities observed with shorter or extended reaction periods or when the reactions were conducted at different temperatures (37 or 4° C., 0.5-7 d). As discussed below, the rates and efficiencies but not final relative efficiencies of DNA alkylation were altered by changing the reaction temperatures.
DNA Alkylation Properties. […] The DNA alkylation reaction was examined within w794 DNA for which comparative results are available for past agents. The alkylation site identification was obtained by thermal strand cleavage of the singly 5' end-labeled duplex DNA after exposure to the agents. Following treatment of the labeled DNA with a range of agent concentrations, the unbound agent was removed by EtOH precipitation of the DNA. Redissolution of the DNA in aqueous buffer, thermolysis at 100° C. (30 min) to induce depurination and strand cleavage at the adenine N3 or guanine N3 minor groove alkylation sites, denaturing high resolution PAGE adjacent to Sanger sequencing standards and autoradiography provided the DNA cleavage and alkylation sites.
DNA Alkylation Studies: selectivity and Efficiency. General procedures, the preparation of singly ^32 P 5' end-labeled double stranded DNA, the agent binding studies, gel electrophoresis, and autoradiography were conducted according to standard procedures. Eppendorf tubes containing the 5' end-labeled DNA (9 μL) in TE buffer (10 mM Tris, 1 mM EDTA, pH 7.5) were treated with the agent in DMSO (1 μL at the specified concentration). The solution was mixed by vortexing and brief centrifugation and subsequently incubated at 4 or 25° C. for 24 h (natural enantiomers) and 25 or 37° C. (unnatural enantiomers) for 72 h. The covalently modified DNA was separated from unbound agent by EtOH precipitation and resuspended in TE buffer (10 μL). The solution of DNA in an Eppendorf tube sealed with parafilm was warmed at 100° C. for 30 min to induce cleavage at the alkylation sites, allowed to cool to 25° C. and centrifuged. Formamide dye (0.03% xylene cyanol FF, 0.03% bromophenol blue, 8.7% Na2 EDTA 250 mM) was added (5 μL) to the supernatant. Prior to electrophoresis, the sample was denatured by warming at 100° C. for 5 min, placed in an icebath, and centrifuged, and the supernatant (3 μL) was loaded directly onto the gel. Sanger dideoxynucleotide sequencing reactions were run as standards adjacent to the reaction samples. Polyacrylamide gel electrophoresis (PAGE) was run on an 8% sequencing gel under denaturing conditions (8 M urea) in TBE buffer (100 mM Tris, 100 mM boric acid, 0.2 mM Na2 EDTA) followed by autoradiography.
DNA Alkylation of w794 DNA. Eppendorf tubes containing the 5'-end labeled DNA (9 μL) in TE buffer (10 mM Tris, 1 mM EDTA, pH 7.2) were treated with the agent in DMSO (1 μL at the specified concentration). […]

[5] = tested on: calf thymus DNA; test: DNA alkylation of calf thymus DNA, recovery of unreacted agent; type: biochemical; details: 37° C., 48-72 h, 1:51 agent:base-pair ratio
Method: DNA Alkylation of Calf Thymus DNA. An aliquot of agent (5 μL, 0.01 M in DMSO) was added to a calf thymus DNA solution (0.45 mL, 3.79 mg/mL, 10 mM sodium phosphate, pH 7.0, base-pair:agent=51:1). The DNA-agent mixtures were incubated at 37° C. for 72 h for both enantiomers of 105, 106 and 107 or at 37° C. for 48 h for 108, 109, 110 and 111. For both enantiomers of 105, 106, 108 and 110, the unreacted materials were extracted with EtOAc (0.5 mL×4). The combined extracts were dried and dissolved in EtOAc (0.9 mL) and the quantities of 105, 106, 108, and 110 were determined by UV. Additional extraction with EtOAc (0.5 mL×4) was carried out, and the amounts of combined material were determined by UV. No additional material was recovered. For the ionic agents 107, 109 and 111, the unreacted materials were recovered from the supernatants of EtOH precipitation of the DNA. The EtOH in the supernatant was removed by a stream of N2. The supernatants were diluted to 0.9 mL with H2 O and the recovered quantities of 107, 109, and 111 were determined by UV.
These studies were conducted alongside control reactions conducted in the absence of DNA. An aliquot of agent (5 μL, 0.01 M in DMSO) was added to sodium phosphate buffer (0.45 mL, 10 mM, pH 7.0). The agent-buffer mixtures were incubated at 37° C. for 72 h for both enantiomers of 105, 106 and 107 or at 37° C. for 48 h for 108, 109, 110 and 111. For 105, 106, 108 and 110, the materials were extracted with EtOAc (0.5 mL×4). The combined extracts were dried and dissolved in EtOAc (0.9 mL) and the agent quantities were determined by UV. For the ionic agents 107, 109 and 111, the agent-buffer mixtures were diluted to 0.9 mL with H2 O and their quantities were determined by UV.

[6] = tested on: L1210; test: In vitro cytotoxic activity, L1210; details: L1210

Q: For `COc1cc2cc(C(=O)N3CC4CC45C3=CC(=O)c3ccccc35)[nH]c2c(OC)c1OC` (single isomer, unassigned) [CBI-TMI], which “relative rate of DNA alkylation, TMI series” value [1] is on record?
A: The value was 1.0 ×.

Q: What about the “relative rate of DNA alkylation” value [2] of the same molecule?
A: Its value is 1.0.

Q: Which “delayed toxicity” value [3] does the source give for `COc1c(O)c2c(c3cc(C(=O)N4CCc5c4c(O)c(OC)c4[nH]c(C(=O)N6CC7CC78C6=CC(=O)c6[nH]cc(C)c68)cc54)[nH]c13)CCN2C(N)=O` (single isomer, unassigned) [ent-(-)-CC-1065] here?
A: Its value is “has not been observed”.

Q: What does the source list for `CSCCCNC(=O)c1csc(-c2csc(CCNC(=O)CCC(=O)N3CC(CCl)c4c3cc(O)c3ccccc43)n2)n1` (stereo not drawn) [compound 108, 3-[2'-(2-(2-(1-Chloromethyl-5-hydroxy-1,2-dihydro-3H-benz[e]indol-3-yl)-1,4-dioxobutyl)aminoethyl)-2,4'-bithiazole-4-carboxamido]propyl Methyl Sulfide]?
A: DNA alkylation, failure to alkylate [4]: failed to alkylate DNA at concentrations of 10^-3 M or lower; also recorded: no reaction is observed; DNA alkylation of calf thymus DNA [5]: recovered nearly quantitatively

Q: With `COc1ccc2c(c1)C13CC1CN(C(=O)c1cc4cc(OC)c(OC)c(OC)c4[nH]1)C3=CC2=O` (single isomer, unassigned) [MCBI-TMI] as the molecule, how does the “relative rate of DNA alkylation, TMI series” value [1] read?
A: Its value is 1.9 ×.

Q: And the “relative rate of DNA alkylation” value [2]?
A: Its value is 1.8.

Q: Which “DNA alkylation of calf thymus DNA” value [5] does the source give for `CSCCCNC(=O)c1csc(-c2csc(CCNC(=O)C(=O)N3CC(CCl)c4c3cc(O)c3ccccc43)n2)n1` (stereo not drawn) [compound 105, 3-[2'-(2-(2-(1-Chloromethyl-5-hydroxy-1,2-dihydro-3H-benz[e]indol-3-yl)-1,2-dioxoethyl)aminoethyl)-2,4'-bithiazole-4-carboxamido]propyl Methyl Sulfide] here?
A: The value was “recovered nearly quantitatively”.

Q: And the “cytotoxic potency in comparison with CBI building block or simple CBI derivatives” value [6]?
A: Its value is “approached the cytotoxic potency of 114”.

Q: Which results are given for `CSCCCNC(=O)c1csc(-c2csc(CCNC(=O)[C@@H](NC(=O)CCC(=O)N3CC(CCl)c4c3cc(O)c3ccccc43)[C@@H](C)O)n2)n1` (stereo partly drawn) [compound 110, 3-[2'-(2-((4-(1-Chloromethyl-5-hydroxy-1,2-dihydro-3H-benz[e]indol-3-yl)-1,4-dioxobutyl)-L-threonyl)aminoethyl)-2,4'-bithiazole-4-carboxamido]propyl Methyl Sulfide]?
A: DNA alkylation, failure to alkylate [4]: failed to alkylate DNA at concentrations of 10^-3 M or lower; DNA alkylation of calf thymus DNA [5]: recovered nearly quantitatively

Q: Which “DNA alkylation properties, comparison in words” value [4] does the source give for `C[S+](C)CCCNC(=O)c1csc(-c2csc(CCNC(=O)CCC(=O)N3CC(CCl)c4c3cc(O)c3ccccc43)n2)n1.[I-]` (stereo not drawn) [compound 109, 3-[2'-(2-(4-(1-Chloromethyl-5-hydroxy-1,2-dihydro-3H-benz[e]indol-3-yl)-1,4-dioxobutyl)aminoethyl)-2,4'-bithiazole-4-carboxamido]propyl Dimethyl Sulfonium Iodide] here?
A: The value was “only slightly more effective than 116”.

Q: What about the “DNA alkylation sequence selectivity” value [4] of the same molecule?
A: Its value is 5'-AA, 5'-TA and identical to that of N-BOC-CBI (123) and 116.

Q: What about the “DNA alkylation of calf thymus DNA” value [5] of the same molecule?
A: Its value is “perceptible covalent attachment to the calf thymus DNA”.

Q: For `C[S+]([O-])CCCNC(=O)c1csc(-c2csc(CCNC(=O)C(=O)N3CC(CCl)c4c3cc(O)c3ccccc43)n2)n1` (stereo not drawn) [compound 106, 3-[2'-(2-(2-(1-Chloromethyl-5-hydroxy-1,2-dihydro-3H-benz[e]indol-3-yl)-1,2-dioxoethyl)aminoethyl)-2,4'-bithiazole-4-carboxamido]propyl Methyl Sulfoxide], which “DNA alkylation of calf thymus DNA” value [5] is on record?
A: The value was “recovered nearly quantitatively”.

Q: With `C[C@@H](O)[C@H](NC(=O)CCC(=O)N1CC(CCl)c2c1cc(O)c1ccccc21)C(=O)NCCc1nc(-c2nc(C(=O)NCCC[S+](C)C)cs2)cs1` (stereo partly drawn) [compound 111, 3-[2'-(2-((4-(1-Chloromethyl-5-hydroxy-1,2-dihydro-3H-benz[e]indol-3-yl)-1,4-diooxobutyl)-L-threonyl)aminoethyl)-2,4'-bithiazole-4-carboxamido]propyl Dimethyl Sulfonium Iodide] as the molecule, how does the “DNA alkylation properties, comparison in words” value [4] read?
A: The value was “only slightly more effective than 116”.

Q: What about the “DNA alkylation sequence selectivity” value [4] of the same molecule?
A: The value was 5'-AA, 5'-TA and identical to that of N-BOC-CBI (123) and 116.

Q: And the “DNA alkylation of calf thymus DNA” value [5]?
A: Its value is “perceptible covalent attachment to the calf thymus DNA”.
